Measured values: ChEMBL document CHEMBL1201862, “PubChem BioAssay data set” (2004)
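Each compound was tested at five concentrations against cells in 96-well plates for 48 hours. GI50: concentration for 50% inhibition of growth.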 Active and inactive are the calls of the source. Rule as the data show it: active = GI50 up to about 1.1 µM and inactive = higher. Residues, ends and D or L forms follow the SMILES beside them. *: point of attachment. Boc = CC(C)(C)OC(=O)*; OBn = c1ccc(CO*)cc1

How the values were obtained:
Experiment in all cases: inhibition of tumour cell growth, NCI panel, 48 h
[1] = system: TK-10
[2] = system: UACC-257
[3] = system: SN12C
[4] = system: MCF7
[5] = system: SF-295
[6] = system: SF-539
[7] = system: CCRF-CEM
[8] = system: MDA-MB-231
[9] = system: RPMI-8226
[10] = system: NCI-H522
[11] = system: HCC 2998
[12] = system: A498
[13] = system: SNB-75
[14] = system: HCT-116
[15] = system: Hs-578T
[16] = system: UO-31
[17] = system: U-251
[18] = system: NCI-H460
[19] = system: EKVX
[20] = system: M19-MEL

Row | SMILES | GI50 [1] | GI50 [2] | GI50 [3] | GI50 [4] | GI50 [5] | GI50 [6] | GI50 [7] | GI50 [8] | GI50 [9] | GI50 [10] | GI50 [11] | GI50 [12] | GI50 [13] | GI50 [14] | GI50 [15] | GI50 [16] | GI50 [17] | GI50 [18] | GI50 [19] | GI50 [20]
1 | O=C(NO)c1ccc(OCc2cccc(Cl)c2)cc1 | 11.6 µM (inactive) | 13.6 µM (inactive) | 8.89 µM (inactive) | 12.7 µM (inactive) | 9.33 µM (inactive) | 8.11 µM (inactive) | 2.66 µM (inactive) | 12.1 µM (inactive) | 3.27 µM (inactive) | 3.27 µM (inactive) | 5.87 µM (inactive) | 4.81 µM (inactive) | 9.2 µM (inactive) | 2.22 µM (inactive) | 16.2 µM (inactive) | 7.43 µM (inactive) | 11.6 µM (inactive) | 4.58 µM (inactive) | 10.8 µM (inactive) | 
2 | CC1=C2CC(C)(C)/C=C\C(=O)/C(C)=C\C3=C[C@H](C)C[C@]3(O2)C1=O | 2.03 µM (inactive) | 1.14 µM (inactive) | 1.42 µM (inactive) | 0.343 µM (active) | 8.87 µM (inactive) | 0.946 µM (active) | 0.138 µM (active) | 1.05 µM (active) | 0.326 µM (active) | 0.201 µM (active) | 4.85 µM (inactive) | 4.67 µM (inactive) | 4.1 µM (inactive) | 0.443 µM (active) | 2.26 µM (inactive) | 1.18 µM (inactive) | 3.86 µM (inactive) | 4.71 µM (inactive) | 1.87 µM (inactive) | 
3 | COC(=O)C#CC1(O)C=CC(=O)C=C1 | 1.18 µM (inactive) | 1.15 µM (inactive) | 0.789 µM (active) | 0.352 µM (active) | 8.69 µM (inactive) | 1.12 µM (active) | 0.106 µM (active) | 2 µM (inactive) | 0.687 µM (active) | 0.175 µM (active) | 2.54 µM (inactive) | 34 µM (inactive) | 3.9 µM (inactive) | 0.256 µM (active) | 2.79 µM (inactive) | 0.889 µM (active) | 0.841 µM (active) | 2.71 µM (inactive) | 4.12 µM (inactive) | 
4 | COc1ccc(-c2cc(Cc3cccs3)c(=O)[nH]n2)cc1 | > 100 µM (inactive) | 42.3 µM (inactive) | > 100 µM (inactive) |  | > 100 µM (inactive) | > 100 µM (inactive) |  |  |  |  | > 100 µM (inactive) |  | 29.5 µM (inactive) | > 100 µM (inactive) |  | 82 µM (inactive) | > 100 µM (inactive) |  | > 100 µM (inactive) | 40.3 µM (inactive)
5 | O=C(CO[N+](=O)[O-])OCC(=O)c1ccccc1 | > 100 µM (inactive) | > 100 µM (inactive) | > 100 µM (inactive) |  | > 100 µM (inactive) | > 100 µM (inactive) | > 100 µM (inactive) |  | > 100 µM (inactive) | > 100 µM (inactive) | > 100 µM (inactive) |  | > 100 µM (inactive) | > 100 µM (inactive) |  | > 100 µM (inactive) | > 100 µM (inactive) | > 100 µM (inactive) | > 100 µM (inactive) | > 100 µM (inactive)
6 | CCN(CC)CC(C(=O)Nc1c(C)cccc1C)/C(C)=N\NC(=O)C[N+](C)(C)C (stereo not given) | > 100 µM (inactive) | > 100 µM (inactive) | > 100 µM (inactive) |  | > 100 µM (inactive) | > 100 µM (inactive) |  |  | > 100 µM (inactive) | > 100 µM (inactive) | > 100 µM (inactive) |  | > 100 µM (inactive) | > 100 µM (inactive) |  | > 100 µM (inactive) | > 100 µM (inactive) | > 100 µM (inactive) |  | > 100 µM (inactive)
7 | COC(=O)c1ccc(OCc2ccc3oc(=O)c(-c4ccccc4)nc3c2)cc1 | 44 µM (inactive) | > 100 µM (inactive) | > 100 µM (inactive) |  | > 100 µM (inactive) | > 100 µM (inactive) | 23.5 µM (inactive) |  | 34.9 µM (inactive) | 33.6 µM (inactive) | > 100 µM (inactive) |  | > 100 µM (inactive) | > 100 µM (inactive) |  | > 100 µM (inactive) | > 100 µM (inactive) | > 100 µM (inactive) | > 100 µM (inactive) | > 100 µM (inactive)
8 | CN1CCN(CCNc2ccc(CO)c3sc4ccccc4c(=O)c23)CC1 | 18.3 µM (inactive) | 15.2 µM (inactive) |  |  | 5.93 µM (inactive) | 13.2 µM (inactive) | 4.34 µM (inactive) |  | 10.9 µM (inactive) | 3.38 µM (inactive) | 6.87 µM (inactive) |  | 9.48 µM (inactive) | 5.69 µM (inactive) |  | 14.7 µM (inactive) | 3.11 µM (inactive) | 4.34 µM (inactive) |  | 12.2 µM (inactive)
9 | CCC(O)(Cc1ccc(OC)cc1)c1ccc(OC)cc1 (stereo not given) | > 100 µM (inactive) | > 100 µM (inactive) | > 100 µM (inactive) | > 100 µM (inactive) | > 100 µM (inactive) | > 100 µM (inactive) | > 100 µM (inactive) | > 100 µM (inactive) | > 100 µM (inactive) | > 100 µM (inactive) | > 100 µM (inactive) | > 100 µM (inactive) | > 100 µM (inactive) | > 100 µM (inactive) | > 100 µM (inactive) | > 100 µM (inactive) | > 100 µM (inactive) | > 100 µM (inactive) | > 100 µM (inactive) | 
10 | CC[P+](C#Cc1ccccc1)(c1ccccc1)c1ccccc1 | 1.58 µM (inactive) | 1.21 µM (inactive) | 1.75 µM (inactive) | 3.09 µM (inactive) | 7.03 µM (inactive) | 1.79 µM (inactive) | 0.358 µM (active) | 3.18 µM (inactive) | 0.242 µM (active) | 1.36 µM (inactive) | 1.97 µM (inactive) | 8.17 µM (inactive) | 1.78 µM (inactive) | 1.77 µM (inactive) | 2.86 µM (inactive) | 6.93 µM (inactive) | 0.562 µM (active) | 3 µM (inactive) | 2.26 µM (inactive) | 
11 | COc1ccc2c(c1OC)C(=O)O[C@@H]2[C@H]1c2cc3c(cc2CCN1C)OCO3 | > 100 µM (inactive) | > 100 µM (inactive) | > 100 µM (inactive) | > 100 µM (inactive) | > 100 µM (inactive) | > 100 µM (inactive) | > 10 µM (inactive) | > 100 µM (inactive) | > 100 µM (inactive) | > 100 µM (inactive) | > 100 µM (inactive) | > 100 µM (inactive) | > 100 µM (inactive) | > 100 µM (inactive) | > 100 µM (inactive) | > 100 µM (inactive) | > 100 µM (inactive) | > 100 µM (inactive) | > 100 µM (inactive) | 
12 | CC(C)CC(NC(=O)OC(C)(C)C)C(=O)NC(CC(=O)OCc1ccccc1)C(=O)OCc1ccccc1 (stereo not drawn) (Boc-Leu-Asp(OBn)-OBn; configuration not given here) | 21.3 µM (inactive) | 32.9 µM (inactive) | 22.4 µM (inactive) | 31.5 µM (inactive) | 43.7 µM (inactive) | 31 µM (inactive) | 33.1 µM (inactive) | 39.4 µM (inactive) | 27.8 µM (inactive) | 27.9 µM (inactive) | 20.9 µM (inactive) | > 100 µM (inactive) | 87.9 µM (inactive) | 30.7 µM (inactive) | > 100 µM (inactive) | 27 µM (inactive) | 25.5 µM (inactive) | 30.8 µM (inactive) | > 100 µM (inactive) | 
